In PMC2923275 (Biochemical pharmacology, 2010):

What was measured:
[1] = test system: uninfected human foreskin fibroblasts; assay: Host toxicity, MTT assay on uninfected host cells; details: infection: None
[2] = test system: wild type (RH) strain of T. gondii; assay: Anti-toxoplasmic activity in tissue culture; type: cell-based, Toxoplasma gondii; details: wild type (RH) in human fibroblasts
[3] = test system: adenosine kinase deficient (TgAK^-3) strain of T. gondii; assay: Anti-toxoplasmic activity in tissue culture; type: cell-based, Toxoplasma gondii; details: TgAK^-3 in human fibroblasts

SMILES	host-toxicity (survival of uninfected host cells) ([1]; 5 μM compound) [%]	host-toxicity (survival of uninfected host cells) ([1]; 10 μM compound) [%]	host-toxicity (survival of uninfected host cells) ([1]; 25 μM compound) [%]	host-toxicity (survival of uninfected host cells) ([1]; 50 μM compound) [%]	percent survival of parasite ([2]; 5 μM compound) [%]	percent survival of parasite ([2]; 10 μM compound) [%]	percent survival of parasite ([2]; 25 μM compound) [%]	percent survival of parasite ([2]; 50 μM compound) [%]	percent survival of parasite ([3]; 5 μM compound) [%]	percent survival of parasite ([3]; 10 μM compound) [%]	percent survival of parasite ([3]; 25 μM compound) [%]	percent survival of parasite ([3]; 50 μM compound) [%]
Cc1cccc(CSc2ncnc3c2ncn3C2CC(CO)C(O)C2O)c1 (stereo not shown) [Compound 5, Carbocyclic 6-(m-methylbenzylthio)inosine]	100	100	100	96.1	88.3	64.7	13.7	1.2	100	100	100	100
O=[N+]([O-])c1cccc(CSc2ncnc3c2ncn3C2CC(CO)C(O)C2O)c1 (stereo not shown) [Compound 7, Carbocyclic 6-(m-nitrobenzylthio)inosine]	100	100	100	100	84.4	50.9	4.2	0.0	100	100	100	100
OCC1CC(n2cnc3c(SCc4ccccc4Cl)ncnc32)C(O)C1O (stereo not shown) [Compound 3, Carbocyclic 6-(o-chlorobenzylthio)inosine]	100	100	100	100	79.5	48.8	9.8	2.2	100	100	100	100
OCC1CC(n2cnc3c(SCc4cccc(C(F)(F)F)c4)ncnc32)C(O)C1O (stereo not shown) [Compound 6, Carbocyclic 6-(m-trifluoromethylbenzylthio)inosine]	100	100	100	90.6	79.0	47.1	6.3	1.0	100	100	100	100
OCC1CC(n2cnc3c(SCc4ccc(OC(F)(F)F)cc4)ncnc32)C(O)C1O (stereo not shown) [Compound 16, Carbocyclic 6-(p-trifluoromethoxybenzylthio)inosine]	100	98.2	96.7	89.3	87.3	53.6	8.1	0.0	100	100	100	100
Cc1ccc(CSc2ncnc3c2ncn3C2CC(CO)C(O)C2O)c(C)c1C (stereo not shown) [Compound 21, Carbocyclic 6-(o,m,p-trimethylbenzylthio)inosine]	100	100	90.6	93.2	71.0	32.7	0.0	0.0	100	100	100	100
Nc1ccc(S(=O)(=O)Nc2ncccn2)cc1 [Compound 23, Sulfadiazine, reference compound]	98.2	99.8	99.8	102	92.9	58.0	53.4	46.3				
CCc1nc(N)nc(N)c1-c1ccc(Cl)cc1 [Compound 24, Pyrimethamine, reference compound]	101	100	108	108	98.9	55.3	25.1	23.2				
